According to US20230001396A1, “COMPOSITIONS AND METHODS FOR CONTROLLED DELIVERY AND PROTECTION OF THERAPEUTIC AGENTS” (Board of Regents, The University of Texas System, priority 2019, published 2023):

Assay: Ex vitro study: fluorescence intensity over time in 1×PBS at 37° C.
Assay type: physicochemical
Conditions: 1×PBS buffer pH 7.4 and 5.4, 37° C.
Method: Ex vitro study: In order to observe the stability of PLGA microparticles in blood ex vitro study was done by the presence of fluorescence intensity after treating the Cy5@ZIF-8@PLGA particles in 1×PBS buffer. The experiment was performed at two different pH conditions. One was pH 7.4 which is the normal blood pH and another was pH 5.4 which mimic the extreme pH condition of blood in different disease states. The fluorescence intensity was measured at different time intervals. For that four types of samples were prepared every time. In two Eppendorf tubes PBS buffer of pH 7.4 and 5.4 were taken and fluorescence intensity was measured and found no peaks. PLGA microparticles were dissolved in 1×PBS buffer pH 7.4 and pH 5.4 with 10 mins centrifugation in Beckman ultra-small centrifuge machine at 3225×g. Only the dissolved clear supernatant was taken and kept in a hot room (37° C.). In another two Eppendorf tubes, Cy5 dye was dissolved in 1×PBS buffer pH 7.4 and 5.4 and kept under the same conditions as the PLGA microparticles to validate the change of fluorescence intensity of Cy5 dye at 37° C. (FIGS. 8A-8D).
It is believed that the PLGA microparticles further preserve the Cy5 dye and act as a sustained release protective shell which can enhance the release period of model drug Cy5 at blood pH.

C[N+]1=C(C=CC=CC=C2N(CCCCCC(=O)O)c3ccc(S(=O)(=O)O)cc3C2(C)C)C(C)(C)c2cc(S(=O)(=O)[O-])ccc21 [Cy5 dye, 3H-Indolium, 2-[5-[1-(5-Carboxypentyl)-1,3-dihydro-3,3-dimethyl-5-sulfo-2H-indol-ylidene]-1,3-pentadien-1-yl]-1-methyl-3,3-dimethyl-5-sulfonate]
change of fluorescence intensity over time: did not show any regular change of fluorescence intensity over time
